Values joined by “and” are separate entries in the source; they are usually repeats but may differ in a detail not shown here. Equal entries are not always repeated. “Also recorded” adds a separate entry of the source.
Assays:
Assay type in all cases: cell-based, human
K562 [1] = assay: Beta-glucosidase inhibition assay (DMDP) in K562 cell line; settings: for Cell growth relative to untreated cells: higher concentration (0.4 μM)
Description: Similar results showing preferential activation of glucose conjugates relative to galactose or lactose conjugates were obtained in other cancer cell lines. The glucose-conjugated compound is apparently cleaved by native glucosidase inside of the cancer cells resulting in release of a biologically active anti-cytostatic compound. The cleavage of glucose conjugates by an enzymatic pathway to release an active drug is shown by a beta-glucosidase inhibition assay. FIG. 5 is a graph showing the results of a beta-glucosidase inhibition assay studied in K562 cell line. Two different concentrations of prodrug were tested in this experiment. For compound 24, 17-demethoxy-17-[(2-β-glucopyranosylethyl)amino]geldanamycin], the higher concentration is 0.4 μM and the lower concentration is 0.2 μM. […] Percentages of cell growth were calculated compared to control cells in the absence of beta-glucosidase inhibitor and prodrug solution. Each bar represents the average of three experiments. […] While the higher concentration of compound 24 limits cells growth to about 20% of untreated cells, when the beta-glucosidase inhibitor DMDP is added, the high concentration of compound 24 only reduces growth to about 60% that of untreated cells.
Beta-glucosidase Inhibition assay. To verify if the cleavage of sugar moieties from compound 24 is crucial for the anticancer activity, we performed the β-glucosidase inhibition study in K562 cell line. The K562 cells were treated with β-glucosidase inhibitor 2, 5-dihydroxymethyl-3,4-dihydroxypyrrolidine (DMDP) solution (100 μM) for 10 minutes before adding carbohydrate-geldanamycin conjugates. The concentrations of glucose-GA were 0.4 μM and 0.2 μM, respectively. […] From the structures of compounds 24 and 25, the only difference between these two compounds is the sugar moiety, which is glucose in compound 24 and galactose in compound 25.
Beta-Glucosidase inhibition assay for compound 2425. […] The exponentially growing cancer cells were incubated in three different conditions (cells with different concentration of test compounds and DMDP, cells with different concentration of test compounds only, and cell with DMDP only) for 72 hours at 37° C. (5% CO2, 100% humidity). The control cells were exposed to fresh medium only. Then, the anticancer activities of compound 24, 25 were measured with MTS assay as described above. The percentages of cell growth for tested compounds vs. control cells were calculated by the absorbance at 490 nm.

MCF7 = assay: Anticancer activity (MTS assay) in MCF7 cells; settings: 72 hours
Description: (§1) The anticancer activities of six prodrug conjugates synthesized by the method were tested for anticytostatic activity by using the MTS assay to show suppression of cell growth. Four different human cell lines, including colorectal carcinoma cells (SW620, HT 29), breast cancer cells (MCF7), and leukemia cells (K562), were tested using the MTS assay. Each compound was tested at concentration 1-25,000 nM. GA also was tested for comparison. The inhibition of cell growth was calculated compared to control cells without drug treatment. For purposes of this description of in vitro cell culture testing, drug concentrations are given for the molar concentrations of the chemotherapeutic agents present in the media at the initiation of the test. Skilled artisans are aware of the various conversion factors necessary to convert media concentrations to tissue concentration targets and the dose necessary to achieve such a dose.
(§2) Cell Culture. Cell lines SW620, HT29, MCF7, and K562 were cultured in RPMI 1640 (Invitrogen, Carlsbad, Calif., USA) supplemented with 10% fetal bovine serum (FBS), 1% non-essential amino acid and Penicillin (100 u/mL) Streptomycin (100 ug/mL) in a humidified atmosphere of 5% CO2 and 95% air at 37° C. The culture mediums were changed every 2-3 days.
(§3) Anticancer activity of compound (24-29) (MTS assay). Cells (2,000-10,000) were seeded in 96 well plates in RPMI-1640 and incubated for 24 hours. The exponentially growing cancer cells were incubated with various concentrations of compounds for 72 hours at 37° C. (5% CO2, 95% humidity).

SW620 = assay: Anticancer activity (MTS assay) in SW620 cells
Description: as §1, §2, §3

K562 [2] = assay: Anticancer activity (MTS assay) in K562 cells; settings: 72 hours
Description: as §1, §2, §3

HT29 = assay: Anticancer activity (MTS assay) in HT29 cells
Description: as §1, §2, §3

SW620, HT29 and K562 = assay: Beta-galactosidase cleavage assay; settings: 2 units beta-galactosidase
Description: Thus, galactose-GA and lactose-GA conjugates were exposed to beta-galactosidase and observed for enhancement of anticancer activities. […] For compounds 25-29, 1 μM concentration of prodrug compounds were used. GA (0.01 μM), compound 24 (0.1 μM) and beta-galactosidase (2 units) was used in the cell culture. Each bar in the graphs shown is the average of three experiments. Relative percentage of cell growth was calculated compared to control cells in the absence of beta-galactosidase and drug solution. Cell lines SW620, HT29 and K562 were exposed to 2 units of beta-galactosidase and then treated individually with 1 μM of compounds 25-29. At this concentration, galactose-geldanamycin conjugates alone were relatively devoid of anticancer activity.
Beta-galactosidase cleavage assay. Cells (2,000-10,000) were seeded in 96 well plates in RPMI-1640 and incubated for 24 hours. The exponentially growing cancer cells were incubated with 2 units of beta-galactosidase for 10 minutes. The same concentration solutions of various compounds (25-29) were added to each well. The control cells were exposed to fresh medium only or to beta-galactosidase alone. After incubated for 72 hours at 37° C. (5% CO2, 100% humidity), the cell growth was measured with MTS assay as described above. The percentages of cell growth of tested compounds vs. control were calculated by measuring the absorbance at 490 nm.

various cancer cells = assay: Anticancer activity (MTS assay), pooled statements on various cancer cells; settings: no added enzyme
Description: as §1, §3

| SMILES | IC50 (MCF7) [nM] | IC50 (SW620; 72 hours) | IC50 (K562 [2]) [nM] | IC50 (HT29; 72 hours) [nM] | further results |
| --- | --- | --- | --- | --- | --- |
| OCC1NC(CO)C(O)C1O (centres unmarked) [DMDP, 2,5-dihydroxymethyl-3,4-dihydroxypyrrolidine, reference compound] | – | – | – | – | Effect on cell growth (K562 [1]; DMDP alone): did not have any effect on cell growth |
| COC1=C2C[C@@H](C)C[C@H](OC)[C@H](O)[C@@H](C)/C=C(\C)[C@H](OC(N)=O)[C@@H](OC)/C=C\C=C(/C)C(=O)NC(=CC1=O)C2=O [GA, Geldanamycin, reference compound] | – | – | – | – | IC50 (MCF7; Homo sapiens): 6.5 nM; IC50 (SW620; Homo sapiens, SW-620, 72 hours): 6.2 nM; IC50 (K562 [2]; Homo sapiens): 22.1 nM; IC50 (HT29; Homo sapiens, HT-29, 72 hours): 24.5 nM |
| COC1C=CC=C(C)C(=O)NC2=CC(=O)C(NCCOC3OC(CO)C(O)C(O)C3O)=C(CC(C)CC(OC)C(O)C(C)C=C(C)C1OC(N)=O)C2=O (stereo not drawn) [compound 24, 17-demethoxy-17-[(2-β-glucopyranosylethyl)amino]geldanamycin] | 754 | 70 nM and 70.2 nM | 381 | 105 | Effect of beta-galactosidase treatment on activity (SW620, HT29 and K562): did not affect biological activity; also recorded: relatively unaffected; Effect of beta-galactosidase treatment on activity (SW620, HT29 and K562; listed as glucose-GA): not affected; Anticytostatic activity against tumor cells (various cancer cells): showed anticytostatic activity; Anticancer activity IC50 in various cancer cells (various cancer cells; various cancer cells): within the nanomolar range; IC50 (various cancer cells; various cancer cells): 70.2 to 381 nM; Decrease of activity after treatment with DMDP (K562 [1]; DMDP 100 μM): 3 fold; Effect of beta-glucosidase inhibitor DMDP on activity (K562 [1]; DMDP 100 μM, listed as glucose-GA): completely abolished; Cell growth relative to untreated cells (K562 [1]; with beta-glucosidase inhibitor DMDP (100 μM)): about 60%; Cell growth relative to untreated cells (K562 [1]; without DMDP): about 20% |
| COC1C=CC=C(C)C(=O)NC2=CC(=O)C(NCCOC3OC(CO)C(O)C(O)C3O)=C(CC(C)CC(OC)C(O)C(C)C=C(C)C1OC(N)=O)C2=O (stereo not drawn) [compound 25, 17-demethoxy-17-[(2-β-galactopyranosylethyl)amino]geldanamycin] | > 25000 | – | > 23000 | > 14000 | Effect of beta-glucosidase inhibitor DMDP on activity (K562 [1]; DMDP 100 μM): did not affect; also recorded: relatively unaffected |
| COC1C=CC=C(C)C(=O)NC2=CC(=O)C(NCCCOC3OC(CO)C(O)C(O)C3O)=C(CC(C)CC(OC)C(O)C(C)C=C(C)C1OC(N)=O)C2=O (centres unmarked) [compound 26] | > 12000 | > 14000 nM | > 14000 | > 6000 | – |
| COC1C=CC=C(C)C(=O)NC2=CC(=O)C(NCCCCCOC3OC(CO)C(O)C(O)C3O)=C(CC(C)CC(OC)C(O)C(C)C=C(C)C1OC(N)=O)C2=O (centres unmarked) [compound 27] | > 17000 | > 13000 nM | > 19000 | > 13000 | – |
| COC1C=CC=C(C)C(=O)NC2=CC(=O)C(NCCOCCOC3OC(CO)C(O)C(O)C3O)=C(CC(C)CC(OC)C(O)C(C)C=C(C)C1OC(N)=O)C2=O (stereo not drawn) [compound 28, 17-demethoxy-17-{[2-(2-β-galactopyranosylethyl)ethyl]amino}geldanamycin] | > 22000 | > 11000 nM | > 15000 | > 13000 | – |
| COC1C=CC=C(C)C(=O)NC2=CC(=O)C(NCCOC3OC(CO)C(OC4OC(CO)C(O)C(O)C4O)C(O)C3O)=C(CC(C)CC(OC)C(O)C(C)C=C(C)C1OC(N)=O)C2=O (stereo not drawn) [compound 29, 17-demethoxy-17-[(2-β-lactopyranosylethyl)amino]geldanamycin] | > 22000 | > 20000 nM | > 25000 | > 25000 | – |
